Data from ChEMBL document CHEMBL1914411, “Synthesis of lipophilic dimeric C-7/C-7-linked ciprofloxacin and C-6/C-6-linked levofloxacin derivatives. Versatile in vitro biological evaluations of monomeric and dimeric fluoroquinolone derivatives as potential antitumor, antibacterial or antimycobacterial agents” (Eur J Med Chem, 2011).
Values after ≈ are worked out from the molar mass of the structure shown. Active and inactive are the calls of the source.

Key:
[1] = test system: Mycobacterium tuberculosis; assay: Antimycobacterial activity against Mycobacterium tuberculosis H37Rv assessed as growth inhibition at 0.1 uM after 6 days by MTT colorimetric microassay; format: functional, organism-based
[2] = test system: Mycobacterium tuberculosis; assay: Antimycobacterial activity against Mycobacterium tuberculosis H37Rv assessed as growth inhibition at 1 uM after 6 days by MTT colorimetric microassay; format: functional; conditions: for inhibition of growth at 1 µM: 144 h, read-out: GI
[3] = test system: Staphylococcus aureus; assay: Antimicrobial activity against multidrug-resistant Staphylococcus aureus isolate 2 after 18 to 24 hrs by broth microdilution method; format: functional
[4] = test system: Staphylococcus aureus; assay: Antimicrobial activity against Staphylococcus aureus CIP 4.83 after 18 to 24 hrs by broth microdilution method; format: functional
[5] = test system: Mycobacterium tuberculosis; assay: Antimycobacterial activity against Mycobacterium tuberculosis H37Rv assessed as growth inhibition at 10 uM after 6 days by MTT colorimetric microassay; format: functional; conditions: 144 h, read-out: GI
[6] = test system: Escherichia coli; assay: Antimicrobial activity against Escherichia coli CIP 53126 after 18 to 24 hrs by broth microdilution method; format: functional
[7] = test system: Pseudomonas aeruginosa; assay: Antimicrobial activity against Pseudomonas aeruginosa CIP 82.118 after 18 to 24 hrs by broth microdilution method; format: functional
[8] = test system: Staphylococcus aureus; assay: Antimicrobial activity against methicillin-resistant Staphylococcus aureus ATCC 33591 after 18 to 24 hrs by broth microdilution method; format: functional
[9] = test system: Staphylococcus aureus; assay: Antimicrobial activity against multidrug-resistant Staphylococcus aureus isolate 1 after 18 to 24 hrs by broth microdilution method; format: functional
[10] = test system: Staphylococcus aureus; assay: Antimicrobial activity against methicillin-resistant Staphylococcus aureus ATCC 33592 after 18 to 24 hrs by broth microdilution method; format: functional
[11] = test system: Enterococcus hirae; assay: Antimicrobial activity against Enterococcus hirae CIP 5855 after 18 to 24 hrs by broth microdilution method; format: functional
[12] = test system: Mycobacterium tuberculosis; assay: Antimycobacterial activity against Mycobacterium tuberculosis H37Rv after 6 days by MTT colorimetric microassay; format: functional, organism-based; conditions: 144 h

CCCCCCCCCCCCCCCC(=O)OCOC(=O)c1cn2c3c(c(N4CCN(C)CC4)c(F)cc3c1=O)OC[C@@H]2C
growth inhibition (GI) [1]: inactive | growth inhibition (GI) [2]: inactive

CCCCCCCCCCCCCCCCCCCC(=O)OCOC(=O)c1cn2c3c(c(N4CCN(C)CC4)c(F)cc3c1=O)OC[C@@H]2C
growth inhibition (GI) [1]: inactive | growth inhibition (GI) [2]: inactive

CCCCCCCCC(=O)OCC(=O)N1CCN(c2cc3c(cc2F)c(=O)c(C(=O)O)cn3C2CC2)CC1
MBC [3]: 15.6 µM (≈ 8.26 µg/mL) | MIC [3]: 7.8 µM (≈ 4.13 µg/mL) | MBC [4]: ≤ 0.12 µM | MIC [4]: ≤ 0.12 µM | inhibition of growth at 10 µM [5]: > 95% | growth inhibition (GI) [1]: inactive | MBC [6]: 500 µM (≈ 265 µg/mL) | MIC [6]: 62.5 µM (≈ 33.1 µg/mL) | MBC [7]: 250 µM (≈ 132 µg/mL) | MIC [7]: 31.2 µM (≈ 16.5 µg/mL) | MBC [8]: 0.24 µM (≈ 0.127 µg/mL) | MIC [8]: 0.03 µM (≈ 0.0159 µg/mL) | MBC [9]: 15.6 µM (≈ 8.26 µg/mL) | MIC [9]: 7.8 µM (≈ 4.13 µg/mL) | MBC [10]: 0.02 µM (≈ 0.0106 µg/mL) | MIC [10]: 0.02 µM (≈ 0.0106 µg/mL) | MBC [11]: ≤ 0.97 µM | MIC [11]: ≤ 0.97 µM

CCCCCCCCCCCCCCNC(=O)c1cn2c3c(c(N4CCN(C)CC4)c(F)cc3c1=O)OC[C@@H]2C
MBC [4]: 31.2 µM (≈ 17.4 µg/mL) | MIC [4]: 7.8 µM (≈ 4.34 µg/mL) | inhibition of growth at 10 µM [5]: > 95% | growth inhibition (GI) [1]: inactive | MBC [6]: 250 µM (≈ 139 µg/mL) | MIC [6]: 125 µM (≈ 69.6 µg/mL) | MBC [7]: 250 µM (≈ 139 µg/mL) | MIC [7]: 62.5 µM (≈ 34.8 µg/mL) | MBC [11]: 3.9 µM (≈ 2.17 µg/mL) | MIC [11]: 3.9 µM (≈ 2.17 µg/mL)

CCCC(=O)OCOC(=O)c1cn2c3c(c(N4CCN(C)CC4)c(F)cc3c1=O)OC[C@@H]2C
inhibition of growth at 10 µM [5]: > 95% | IC50 [12]: 1300 nM | MIC [12]: 2.5 µM (≈ 1.15 µg/mL) | growth inhibition (GI) [1]: inactive | inhibition of growth at 1 µM [2]: 74%

CCCCCCCCCCNC(=O)c1cn2c3c(c(N4CCN(C)CC4)c(F)cc3c1=O)OC[C@@H]2C
MBC [4]: 7.8 µM (≈ 3.91 µg/mL) | MIC [4]: 7.8 µM (≈ 3.91 µg/mL) | inhibition of growth at 10 µM [5]: > 95% | IC50 [12]: 5800 nM | MIC [12]: 10 µM (≈ 5.01 µg/mL) | growth inhibition (GI) [1]: inactive | MBC [6]: 500 µM (≈ 250 µg/mL) | MIC [6]: 125 µM (≈ 62.6 µg/mL) | MBC [7]: 250 µM (≈ 125 µg/mL) | MIC [7]: 62.5 µM (≈ 31.3 µg/mL) | inhibition of growth at 1 µM [2]: 5% | MBC [11]: 15.6 µM (≈ 7.81 µg/mL) | MIC [11]: 7.8 µM (≈ 3.91 µg/mL)

CCCCCCC(=O)N1CCN(c2cc3c(cc2F)c(=O)c(C(=O)O)cn3C2CC2)CC1
MBC [3]: > 500 µM | MIC [3]: 250 µM (≈ 111 µg/mL) | MBC [4]: ≤ 0.12 µM | MIC [4]: ≤ 0.03 µM | inhibition of growth at 10 µM [5]: > 95% | growth inhibition (GI) [1]: inactive | MBC [6]: 31.2 µM (≈ 13.8 µg/mL) | MIC [6]: 31.2 µM (≈ 13.8 µg/mL) | MBC [7]: 250 µM (≈ 111 µg/mL) | MIC [7]: 62.5 µM (≈ 27.7 µg/mL) | MBC [8]: 0.48 µM (≈ 0.213 µg/mL) | MIC [8]: 0.06 µM (≈ 0.0266 µg/mL) | MBC [9]: 500 µM (≈ 222 µg/mL) | MIC [9]: 62.5 µM (≈ 27.7 µg/mL) | MBC [10]: 0.24 µM (≈ 0.106 µg/mL) | MIC [10]: 0.06 µM (≈ 0.0266 µg/mL) | MBC [11]: 31.2 µM (≈ 13.8 µg/mL) | MIC [11]: 31.2 µM (≈ 13.8 µg/mL)

C[C@H]1COc2c(N3CCN(C)CC3)c(F)cc3c(=O)c(C(=O)NCCCCCCCCNC(=O)c4cn5c6c(c(N7CCN(C)CC7)c(F)cc6c4=O)OC[C@@H]5C)cn1c23
MBC [4]: 15.6 µM (≈ 13 µg/mL) | MIC [4]: 15.6 µM (≈ 13 µg/mL) | inhibition of growth at 10 µM [5]: 60% | growth inhibition (GI) [1]: inactive | MBC [6]: 3.9 µM (≈ 3.24 µg/mL) | MIC [6]: 3.9 µM (≈ 3.24 µg/mL) | MBC [7]: 250 µM (≈ 208 µg/mL) | MIC [7]: 62.5 µM (≈ 51.9 µg/mL) | MBC [11]: 125 µM (≈ 104 µg/mL) | MIC [11]: 62.5 µM (≈ 51.9 µg/mL)

CCCCCCCCCCCCCC(=O)OCOC(=O)c1cn2c3c(c(N4CCN(C)CC4)c(F)cc3c1=O)OC[C@@H]2C
MBC [4]: 3.9 µM (≈ 2.35 µg/mL) | MIC [4]: 7.8 µM (≈ 4.69 µg/mL) | inhibition of growth at 10 µM [5]: > 95% | IC50 [12]: 1300 nM | MIC [12]: 2.5 µM (≈ 1.5 µg/mL) | growth inhibition (GI) [1]: inactive | MBC [6]: 15.6 µM (≈ 9.39 µg/mL) | MIC [6]: 15.6 µM (≈ 9.39 µg/mL) | MBC [7]: 250 µM (≈ 150 µg/mL) | MIC [7]: 62.5 µM (≈ 37.6 µg/mL) | MBC [11]: 15.6 µM (≈ 9.39 µg/mL) | MIC [11]: 15.6 µM (≈ 9.39 µg/mL)

C[C@H]1COc2c(N3CCN(C)CC3)c(F)cc3c(=O)c(C(=O)NCCCCCNC(=O)c4cn5c6c(c(N7CCN(C)CC7)c(F)cc6c4=O)OC[C@@H]5C)cn1c23
MBC [4]: 500 µM (≈ 394 µg/mL) | MIC [4]: 125 µM (≈ 98.6 µg/mL) | inhibition of growth at 10 µM [5]: 60% | growth inhibition (GI) [1]: inactive | MBC [6]: 62.5 µM (≈ 49.3 µg/mL) | MIC [6]: 62.5 µM (≈ 49.3 µg/mL) | MBC [7]: 250 µM (≈ 197 µg/mL) | MIC [7]: 62.5 µM (≈ 49.3 µg/mL) | MBC [11]: 250 µM (≈ 197 µg/mL) | MIC [11]: 125 µM (≈ 98.6 µg/mL)

O=C(O)c1cn(C2CC2)c2cc(N3CCNCC3)c(F)cc2c1=O [CIPROFLOXACIN]
MBC [3]: 31.2 µM (≈ 10.3 µg/mL) | MIC [3]: 31.2 µM (≈ 10.3 µg/mL) | MBC [4]: ≤ 0.97 µM | MIC [4]: ≤ 0.97 µM | IC50 [12]: 1600 nM | MIC [12]: 2.5 µM (≈ 0.828 µg/mL) | growth inhibition (GI) [1]: inactive | MBC [6]: ≤ 0.97 µM | MIC [6]: ≤ 0.97 µM | MBC [7]: ≤ 0.97 µM | MIC [7]: ≤ 0.97 µM | MBC [8]: 1.9 µM (≈ 0.63 µg/mL) | MIC [8]: 0.97 µM (≈ 0.321 µg/mL) | MBC [9]: 62.5 µM (≈ 20.7 µg/mL) | MIC [9]: 31.2 µM (≈ 10.3 µg/mL) | MBC [10]: 0.97 µM (≈ 0.321 µg/mL) | MIC [10]: 0.48 µM (≈ 0.159 µg/mL) | MBC [11]: 1.9 µM (≈ 0.63 µg/mL) | MIC [11]: ≤ 0.97 µM
